{
  "source": "patent US8334316B2",
  "about": "“Substituted organosulfur compounds and methods of using thereof” (ACEA Biosciences, Inc., priority 2004, dated 2012)",
  "key": {"[1]": {"test_system": "ao10/17 human ovarian cancer", "test": "ao10/17 human ovarian cancer xenograft in nude mice (Example 4)", "type": "in vivo", "settings": "for Body weight of mice / Mice with palpable tumor / total mice / Tumor volume (cm^3): 50 mg/kg iv x7 qd", "protocol": "Only female mice were used in this study. […] The high, middle and low doses of ACEA100108 were 50, […] and 8 mg/kg/d, respectively.\nPreparation and Administration of Test Compounds. […] The high, middle and low dose of compound ACEA100108 was 50, 20 and 8 mg/kg, respectively.\nThe tumor tissues were grounded in normal saline (1:6 for tumor volume to saline volume) and tumor cell suspensions were prepared in the normal saline.\nFor the human ovarian cancer xenograft model, all used materials, including animal food, animal cage, supporting materials and apparatus contacted by animals, were high-pressure sterilized. Nude mice were maintained in laminar flow shelves under SPF condition. After tumor transplantation, mouse weight and tumor size in each compound dosage group were dynamically monitored and plotted. The tumor size was determined by measuring the major axis (a) and minor axis (b) of the tumor, and tumor volume was calculated according to the equation (3) in Example 3."}, "[2]": {"test_system": "Bcap-37 human breast cancer", "test": "Bcap-37 human breast cancer xenograft in nude mice, dosing from 24 h after transplantation (Example 3)", "type": "in vivo", "excerpt": "(§1) Both male and female mice were used. […] Test control. […] Preparation and Administration of Test Compounds. […] For human tumor xenograft model, all used materials, including animal food, animal cage, supporting materials and apparatus contacted by animals, were high-pressure sterilized. Nude mice were maintained in laminar flow shelves under SPF condition. After tumor transplantation, mouse weight and tumor size in each compound dosage group were dynamically monitored and plotted."}, "[3]": {"test_system": "P388 lymphocytic leukemia", "test": "Murine P388 lymphocytic leukemia model (intraperitoneal transplantation), life span", "type": "in vivo, mouse", "settings": "50 mg/kg/d iv x7 qd", "protocol": "Both male and female mice were used.\nPreparation and Administration of Test Compounds.\nTo prepare cancer cells for the P388 murine lymphocytic leukemia model, ascites of a P388 leukemia-bearing mouse were removed under sterile condition. The ascites were diluted in normal saline (1:6 for ascites to normal saline) to prepare cell suspension. 0.2 mL of the cell suspension was then injected intraperitoneally. […] The life span of carrier mice was determined within 30 days. The life span ratio comparing to the negative control group of the carrier mice in each compound treatment group was calculated according to the formula: Life span ratio %=average life span for the compound treatment group/average life span for the negative control group×100% (4)"}, "mouse Lewis lung cancer": {"test_system": "mouse Lewis lung cancer", "test": "In vivo antitumor efficacy, mouse Lewis lung cancer model, Example 3 (ACEA100108)", "settings": "for Inhibition rate (%): vs solvent control", "description": "For human tumor xenograft models, cancer cells were passed twice in vivo before being transplanted into the nude mice for the study. Cultured human cancer cells in flask were first xenograft-transplanted in immunodeficient nude mice. After the cancer cells grew to a tumor of certain sizes in the nude mice, the tumor was removed form the nude mice and tumor tissues were dissected. The cell suspensions were prepared from the dissected tumor tissue and transplanted back to immunodeficient nude mice again (i.e. the second passage of cancer cells in human cancer xenograft-transplanted model). After the cancer cells grew to certain size, the tumor was removed from nude mice and the tumor tissues were dissected. The cell suspensions were prepared from dissected tissues and were used for the study of human cancer xenograft models described here.\nBoth male and female mice were used. However, for each experiment, animals of same sex were used. For the mouse transplanted tumor model, the numbers of animals tested were as follows: 10 for each dose group, 10 for positive control group and 20 for negative control group. For human tumor xenograft model, the numbers of animals tested were as follows: 6 for each dose group, 6 for positive control group and 12 for negative control group.\nTest control. For negative control, each mouse was administered intravenously with the solvent only having the same volume and same concentration as those used in high dose ACEA100108 test, once a day, for 7 consecutive days. […] In a reference group, DBTS was administered intravenously at 50 mg/kg, once a day for 7 consecutive days.\nPreparation and Administration of Test Compounds. […] Each time before use, this solution was diluted in normal saline to achieve desired ACEA100108 concentrations. Each mouse (about 20 g in weight) was administered intravenously with the compound solution of 0.5 mL at a controlled injection speed of 0.5 ml/0.5 min. 24 hrs after the tumor transplantation, intravenous injections of compound solutions into carrier mice were performed once a day, for consecutive 7 or 10 days.\nPreparation of Tumor Cells for Transplantation and Determination of Compound Efficacy. To prepare the cancer cells for mouse Lewis lung cancer model, human breast cancer xenograft model and human colon cancer xenograft model, the fast growing tumors were first removed from the transplanted tumor mice. The tumor tissues were dissected and tumor cell suspensions were prepared in normal saline to have a concentration of 2-4×10^7 cells/ml. 0.2 ml of cell suspension was subcutaneously injected into the axillary region (right-side) of each mouse. […] Between two and four weeks after transplantation, mice were sacrificed and the transplanted tumors were removed from experimental mice."}, "HCT-8 human colon cancer": {"test_system": "HCT-8 human colon cancer", "test": "HCT-8 human colon cancer xenograft in nude mice (Example 3)", "type": "in vivo", "settings": "50 mg/kg/d iv x7 qd", "excerpt": "as §1"}, "[4]": {"test_system": "microtubules in COS cells", "test": "Microtubule network in cultured COS cells (anti-tubulin immunofluorescence, confocal microscopy)", "type": "cell-based"}, "[5]": {"settings": "50 mg/kg/d iv x7 qd, vs solvent control"}, "[6]": {"settings": "50 mg/kg iv x7 qd, 7 days after transplantation"}, "[7]": {"settings": "25 d (end), listed as ACEA100101"}},
  "note": "Where “and” joins values, the source holds several entries; their conditions need not be identical. Equal values may be shown once. Marks after values point to notes of the source that are not given here.",
  "data": [
    {"molecule": "c1ccc(CSSSCc2ccccc2)cc1", "note": "[DBTS, Dibenzyl trisulfide]", "values": [
      {"measurement": "Body weight of mice", "setting": "[1]; 0 d (beginning), listed as ACEA100101", "value": "17.3 g and 17.3 ± 1 g"},
      {"measurement": "Mice with palpable tumor / total mice", "setting": "[1]; 7 D after transplantation", "value": "2/6"},
      {"measurement": "Tumor volume (cm^3)", "setting": "[1]; 7 D after transplantation", "value": 0.01, "unit": "cm^3"},
      {"measurement": "Body weight of mice", "setting": "[1]; 7 d", "value": "17.3 ± 1.4", "unit": "g"},
      {"measurement": "Body weight of mice", "setting": "[1]; 14 d", "value": "18.8 ± 1.2", "unit": "g"},
      {"measurement": "Mice with palpable tumor / total mice", "setting": "[1]; 14 d", "value": "6/6"},
      {"measurement": "Tumor volume (cm^3)", "setting": "[1]; 14 d", "value": 0.01, "unit": "cm^3"},
      {"measurement": "Body weight of mice", "setting": "[1]; 21 d", "value": "19.5 ± 1", "unit": "g"},
      {"measurement": "Tumor volume (cm^3)", "setting": "[1]; 21 d", "value": "0.129 ± 0.01", "unit": "cm^3"},
      {"measurement": "Tumor volume (cm^3)", "setting": "[1]; 24 d", "value": "0.225 ± 0.04", "unit": "cm^3"},
      {"measurement": "Body weight of mice", "setting": "[1]; 24 d (end), listed as ACEA100101", "value": "21.3 g and 21.3 ± 1.2 g"},
      {"measurement": "Tumor weight", "setting": "[1]; 50 mg/kg/d iv x7 qd", "value": "0.602 ± 0.10", "unit": "g"},
      {"measurement": "tumor inhibition rate %", "setting": "[1]; [5]", "value": 57.30, "unit": "%"},
      {"measurement": "Mice with palpable tumor / total mice", "setting": "[2]; [6]", "value": "2/6††"},
      {"measurement": "Tumor volume (cm^3)", "setting": "[2]; [6]", "value": 0.01, "unit": "cm^3"},
      {"measurement": "Tumor volume (cm^3)", "setting": "[2]; 50 mg/kg iv x7 qd, 14 d", "value": "0.014 ± 0.01", "unit": "cm^3"},
      {"measurement": "Tumor volume (cm^3)", "setting": "[2]; 50 mg/kg iv x7 qd, 21 d", "value": "0.079 ± 0.01", "unit": "cm^3"},
      {"measurement": "Tumor volume (cm^3)", "setting": "[2]; 50 mg/kg iv x7 qd, 24 d (end), listed as ACEA100101", "value": "0.196 cm^3 and 0.196 ± 0.02 cm^3"},
      {"measurement": "TV inhibition rate % T/C", "setting": "[2]; 50 mg/kg/d iv x7 qd", "value": 11.17, "unit": "%"},
      {"measurement": "Tumor weight", "setting": "[2]; 50 mg/kg/d iv x7 qd", "value": "0.568 ± 0.07", "unit": "g"},
      {"measurement": "Body weight of mice", "setting": "[2]; 50 mg/kg/d iv x7 qd, 0 day (beginning), listed as ACEA100101", "value": "18.0 g and 18 ± 1 g"},
      {"measurement": "Body weight of mice", "setting": "[2]; 50 mg/kg/d iv x7 qd, 7 day", "value": "18.7 ± 0.8", "unit": "g"},
      {"measurement": "Body weight of mice", "setting": "[2]; 50 mg/kg/d iv x7 qd, 14 d", "value": "20.3 ± 0.8", "unit": "g"},
      {"measurement": "Body weight of mice", "setting": "[2]; 50 mg/kg/d iv x7 qd, 21 d", "value": "22 ± 0.6", "unit": "g"},
      {"measurement": "Body weight of mice", "setting": "[2]; 50 mg/kg/d iv x7 qd, 24 d (end), listed as ACEA100101", "value": "22.8 g and 22.8 ± 1.6 g"},
      {"measurement": "tumor inhibition rate %", "setting": "[2]; [5]", "value": 66.98, "unit": "%"},
      {"measurement": "animal No. beginning/end (survivors)", "setting": "[3]", "value": "10/0"},
      {"measurement": "Average life span X ± SD", "setting": "[3]; observed within 30 days", "value": "10.6 ± 1.26"},
      {"measurement": "Life span ratio %", "setting": "[3]; vs solvent control", "value": 109.28, "unit": "%"},
      {"measurement": "Animal No. beginning/end (survival)", "setting": "mouse Lewis lung cancer; 25 mg/kg/d iv x7 qd", "value": "10/10"},
      {"measurement": "Animal weight (g) beginning", "setting": "mouse Lewis lung cancer; 25 mg/kg/d iv x7 qd", "value": 20.5, "unit": "g"},
      {"measurement": "Animal weight (g) end", "setting": "mouse Lewis lung cancer; 25 mg/kg/d iv x7 qd", "value": 23.6, "unit": "g"},
      {"measurement": "Tumor weight", "setting": "mouse Lewis lung cancer; 25 mg/kg/d iv x7 qd", "value": "1.14 ± 0.17", "unit": "g"},
      {"measurement": "Inhibition rate (%)", "setting": "mouse Lewis lung cancer; 25 mg/kg/d iv x7 qd", "value": 57.93, "unit": "%"},
      {"measurement": "Animal No. beginning/end (survival)", "setting": "mouse Lewis lung cancer; 100 mg/kg/d iv x7 qd", "value": "10/6"},
      {"measurement": "Animal weight (g) beginning", "setting": "mouse Lewis lung cancer; 100 mg/kg/d iv x7 qd", "value": 20.7, "unit": "g"},
      {"measurement": "Animal weight (g) end", "setting": "mouse Lewis lung cancer; 100 mg/kg/d iv x7 qd", "value": 23.1, "unit": "g"},
      {"measurement": "Tumor weight", "setting": "mouse Lewis lung cancer; 100 mg/kg/d iv x7 qd (text: administered only 5 times because of toxicity)", "value": "1.00 ± 0.15", "unit": "g"},
      {"measurement": "Inhibition rate (%)", "setting": "mouse Lewis lung cancer; 100 mg/kg/d iv x7 qd (text: only 5 times because of toxicity)", "value": 63.10, "unit": "%"},
      {"measurement": "TV inhibition rate % T/C", "setting": "HCT-8 human colon cancer", "value": 32.17, "unit": "%"},
      {"measurement": "Tumor weight", "setting": "HCT-8 human colon cancer", "value": "0.825 ± 0.07", "unit": "g"},
      {"measurement": "Mouse Body weight", "setting": "HCT-8 human colon cancer; 0 Day (beginning), listed as ACEA100101", "value": "18.2 g and 18.2 ± 1.2 g"},
      {"measurement": "Mouse Body weight", "setting": "HCT-8 human colon cancer; 7 d", "value": "18.8 ± 1", "unit": "g"},
      {"measurement": "Mice with palpable tumor / total mice", "setting": "HCT-8 human colon cancer; 7 day after transplantation", "value": "4/6††"},
      {"measurement": "Tumor volume (cm^3)", "setting": "HCT-8 human colon cancer; 7 day after transplantation", "value": 0.01, "unit": "cm^3"},
      {"measurement": "Mouse Body weight", "setting": "HCT-8 human colon cancer; 14 d", "value": "19.5 ± 1", "unit": "g"},
      {"measurement": "Tumor volume (cm^3)", "setting": "HCT-8 human colon cancer; 14 d", "value": "0.031 ± 0.02", "unit": "cm^3"},
      {"measurement": "Mouse Body weight", "setting": "HCT-8 human colon cancer; 21 d", "value": "20.7 ± 0.8", "unit": "g"},
      {"measurement": "Tumor volume (cm^3)", "setting": "HCT-8 human colon cancer; 21 d", "value": "0.204 ± 0.03", "unit": "cm^3"},
      {"measurement": "Mouse Body weight", "setting": "HCT-8 human colon cancer; [7]", "value": "23.0 g and 23 ± 1.3 g"},
      {"measurement": "Tumor volume (cm^3)", "setting": "HCT-8 human colon cancer; [7]", "value": "0.502 cm^3 and 0.502 ± 0.18 cm^3"},
      {"measurement": "tumor inhibition rate %", "setting": "HCT-8 human colon cancer; vs solvent control", "value": 46.08, "unit": "%"},
      {"measurement": "Microtubule network appearance", "setting": "[4]; 4 hours exposure", "value": "The microtubule network is completely disrupted"},
      {"measurement": "Cell viability / microtubule network", "setting": "[4]; 24 hours, 6 uM or 18 uM", "value": "no cells are viable"}
    ]}
  ]
}
